Test results from patent US4892887A, “N,N'-bis(sulfonyl)hydrazines having antineoplastic activity” (Yale University, priority 1988, dated 1990).
Where two headings read alike, the source gives them in different places.

How the values were obtained:
B16 melanoma = assay: Survival time of mice bearing the B16 melanoma; assay type: in vivo, mouse (C57B1 mice); details: for Max. % T/C: Table IV, B16, at optimum effective daily dose; for Av. Change in wt., %: at optimum effective daily dose, B16 mice
Experimental: This tumor was propagated in C57B1mice. Transplantation was carried out by removing tumors from donor mice bearing 14-day subcutaneous tumor growths. The tissue was fragmented to make a well-dispersed cellular suspension and diluted with Fischer's medium without serum so that one gram of tissue was suspended in 5 ml of solution. A portion (0.2 ml) of the resulting cell suspension was injected intraperitoneally into each recipient animal. All compounds were administered over a wide range of dosage levels by intraperitoneal injection, beginning 24 hours after tumor implantation, once daily for 6 consecutive days. The test compounds were injected as fine suspensions following homogenization in 2 to 3 drops of 20% aqueous Tween 80 and then made up to volume with isotonic saline. […] Mice were weighed during the course of the experiments, and the percent change in body weight from onset to termination of therapy was used as an indication of drug toxicity. Determination of the sensitivity of neoplasms to these agents was based on the prolongation of survival time afforded by the drug treatments.
^a Administered once daily for six consecutive days, beginnign 24
hours after tumor transplanation, with 5 animals being used per group.
^b Average change in body weight from onset to termination of therapy
^c % T/C = average survival time of treated/control animals ×
100. Each value represents the average of 5 animals per group.

L1210 leukemia = assay: Survival time of mice bearing the L1210 leukemia; assay type: in vivo, mouse (CDF-1 mice); details: for Av. Change wt. %: L1210 mice; for response vs control in vivo at 50 mg/kg / response vs control in vivo at 100 mg/kg / response vs control in vivo at 150 mg/kg: Mus musculus, read-out: % T/C; for Antineoplastic Activity (max. % T/C from Table III): Table II, L1210 leukemia; for activity against the L1210 leukemia (in words): mouse, in vivo; for maximum % T/C, L1210 leukemia: comparison compounds
Source text: The ascites cell forms of the L1210 leukemia, Sarcoma 180 and P388 leukemia were propagated in CDF-1 mice. […] Mice were weighed during the course of the experiments, and the percentage change in body weight from the onset to termination of therapy was used as an indication of host toxicity.
Each value represents the average of 5 animals per group.

[1] = Alkylation of 4-(4-nitrobenzyl)pyridine, absorbance at 540 nm (modified Wheeler and Chumley); details: for Relative Alkylating Activity: (O.D. test sample/O.D. compound 8) × 100, pH 7.4, 37°C, 540 nm; for absorbance at 540 nm (alkylating activity): comparison compounds
Experimental: Since compounds 1-13 were conceived as prodrugs of the alkylating species (II), representative compounds of this class, viz. 1-6, 8 and 10 were tested for alkylating ability using a modification of the method of Wheeler and Chumley. This method measured the absorbance at 540 nm of the alkylated product of 4-(4-nitrobenzyl)pyridine.
^a A solution of the test sample (12 micromoles) in 1 ml of acetone,
ml of distilled water and 1 ml of TrisHCl buffer (pH 7.4) was incubated
with 4(4-nitrobenzyl) pyridine (148 micromoles in 0.4 ml of acetone) for
hr at 37°C. Following additon of 2 ml of acetone and 1.5 ml of 0.2
M NaOH, the material was extracted with 5 ml of ethyl acetate. The
absorbance was determined at 540 nm 30 seconds after the addition of the
sodium hydroxide solution. The greater the absorbance value, the greater
the degree of alkylation
^b Relative Alkylating activity = (O.D. for test sample/O.D. for […]

Sarcoma 180 = assay: Survival time of mice bearing Sarcoma 180; assay type: in vivo, mouse (CDF-1 mice)
Experimental: The tumor-inhibitory properties of compounds 1-12 were determined by measuring their effects on the survival time of mice bearing the L1210 leukemia and in some cases Sarcoma 180, and the P388 leukemia. The ascites cell forms of the L1210 leukemia, Sarcoma 180 and P388 leukemia were propagated in CDF-1 mice. Transplantation was carried out using donor mice bearing 7-day tumor growths; experimental details are described in Agrawal et al., J. Med. Chem., 11, 700, 1968, incorporated herein by reference. Mice were weighed during the course of the experiments, and the percentage change in body weight from the onset to termination of therapy was used as an indication of host toxicity.

B16 melanoma cells = assay: Cytotoxicity: colony-forming ability of B16 melanoma cells; assay type: cell-based; details: Mus musculus, 1 hour exposure, 12 days incubation, average of two determinations, read-out: LD50 (the source's name)
Experimental: The cytotoxicity of compounds 8 and 12 was determined by measuring their effects on the colony-forming ability of B16 melanoma cells. The cells were maintained in Eagle's minimum essential medium supplemented with 10% fetal bovine serum. To obtain exponentially growing B16 melanoma cells, a 25 cm^2 flask was inoculated with 10^5 cells for two days before addition of drug. The cell monolayer was exposed to various concentrations of compound for 1 hour. After exposure, the layer was washed twice with PBS to remove the compound. The cells were harvested with 2 mM EDTA in PBS, and 200 cells were plated on a 60 mm dish with 5 mL of medium. After incubation for 12 days, the colonies were stained with crystal violet and counted. […] The LD50 was determined from the individual dose-response curves.

[2] = 50 mg/kg once daily for six days
[3] = 100 mg/kg once daily for six days
[4] = 150 mg/kg once daily for six days
[5] = 144 h, 50 mg/kg once daily for six days, L1210
[6] = 144 h, 100 mg/kg once daily for six days, L1210
[7] = 144 h, 150 mg/kg once daily for six days, L1210

Row | SMILES | Max. % T/C (B16 melanoma) [% T/C] | Av. Change in wt., % (B16 melanoma) | Average Survival Time of Treated Animals, days ± SE (L1210 leukemia; [2]) [days] | Av. Change wt. % (L1210 leukemia; [2]) | Average Survival Time of Treated Animals, days ± SE (L1210 leukemia; [3]) [days] | Av. Change wt. % (L1210 leukemia; [3]) | Average Survival Time of Treated Animals, days ± SE (L1210 leukemia; [4]) [days] | Av. Change wt. % (L1210 leukemia; [4]) | response vs control in vivo at 50 mg/kg (L1210 leukemia; [5]) [%] | response vs control in vivo at 100 mg/kg (L1210 leukemia; [6]) [%] | response vs control in vivo at 150 mg/kg (L1210 leukemia; [7]) [%] | Antineoplastic Activity (max. % T/C from Table III) (L1210 leukemia) [% T/C] | activity against the L1210 leukemia (in words) (L1210 leukemia) | alkylating activity / absorbance (in words) [1] | Relative Alkylating Activity [1] | also measured
1 | COc1ccc(S(=O)(=O)N(C)NS(=O)(=O)c2ccc(C)cc2)cc1 [Compound 4] | 151 | -14.0% | 10.2 ± 0.5 | +12.6% | 10.2 ± 0.2 | +14.8% | 10.4 ± 0.2 | +9.8% | 111 | 111 | 113 | 113 | virtually inactive | lowest | 82 | 
2 | CN(NS(=O)(=O)c1ccccc1)S(=O)(=O)c1ccccc1 [Compound 7, N,N'-bis(benzenesulfonyl)-N-methylhydrazine] | 175 | -2.3% | 13.2 ± 0.7 | -4.8% | 11.6 ± 0.2 | -5.2% | 9.4 ± 0.4 | -13.5% | 147 | 129 | 104 |  |  |  |  | Max. % T/C vs. Sarcoma 180 (Sarcoma 180; at 100 mg/kg): 203 % T/C
3 | Cc1ccc(S(=O)(=O)NN(C)S(=O)(=O)c2ccc(Cl)cc2)cc1 [Compound 5, N-(p-chlorobenzenesulfonyl)-N-methyl-N'-(p-toluenesulfonyl)hydrazine] | 162 | -0.4% | 10.4 ± 0.4 | +5.1% | 13.0 ± 2.2 | +5.5% | 10.0 ± 0.3 | -4.6% | 113 | 141 | 109 | 141 | active against the L1210 leukemia |  | 169 | rate of decomposition to a reactive species (in words) [1]: decomposed less rapidly than compound 10
4 | CCS(=O)(=O)NN(C)S(=O)(=O)c1ccc(C)cc1 [Compound 13] | 174 | -1.1% |  |  |  |  |  |  |  |  |  |  |  |  |  | activity against the B16 melanoma (in words) (B16 melanoma; mouse, in vivo): appreciable levels of activity against the B16 melanoma; IC50 (B16 melanoma cells): 160 nM
5 | Cc1ccc(S(=O)(=O)NN(C)S(=O)(=O)c2ccc(C)cc2)cc1 [Compound 8, N,N'-bis (4-toluenesulfonyl)-N-methylhydrazine] | 165 | -2.7% | 14.0 ± 1.3 | +3.7% | 13.6 ± 2.4 | +0.8% |  |  | 147 | 143 |  | 147 |  |  | 100 | dosage range of activity against the B16 melanoma (B16 melanoma; B16 melanoma in mice): 50 to 150 mg/kg; Max. % T/C vs. Sarcoma 180 (Sarcoma 180; at 50 mg/kg): 197 % T/C
6 | CN(NS(=O)(=O)c1ccc(Cl)cc1)S(=O)(=O)c1ccc(Cl)cc1 [Compound 10, N,N'-bis (p-chlorobenzenesulfonyl)-N-methylhydrazine] | 163 | +4.8% | 9.2 ± 0.2 | +4.1% | 11.4 ± 0.8 | +4.0% | 11.8 ± 1.1 | +1.3% | 97 | 120 |  | 124 | virtually inactive | highest | 185 | response vs control in vivo at 150 mg/kg (L1210 leukemia; L1210, 144 h): 124%; rate of decomposition to a reactive species (in words) [1]: rapid decomposition to a reactive species
7 | Cc1ccc(S(=O)(=O)N(C)NS(=O)(=O)c2ccccc2)cc1 [Compound 1, N'-benzenesulfonyl-N-methyl-N-(p-toluenesulfonyl)hydrazine] | 168 | +8.5% | 15.0 ± 1.4 | +2.0% | 10.6 ± 0.2 | +5.4% | 10.8 ± 0.5 | -2.7% | 163 | 115 | 117 | 163 |  |  | 118 | 
8 | COc1ccc(S(=O)(=O)NN(C)S(=O)(=O)c2ccc(C)cc2)cc1 [Compound 2, N'-(p-methoxybenzenesulfonyl)-N-methyl-N-(p-toluenesulfonyl)hydrazine] | 200 | +9.1% | 10.8 ± 0.6 | +7.7% | 15.0 ± 2.3 | +7.8% | 13.2 ± 2.2 | +2.9% | 117 | 163 | 143 | 163 |  |  | 95 | 
9 | CN(NC(=O)c1ccccc1)C(=O)c1ccccc1 [N,N'-dibenzoyl-N-methylhydrazine, reference compound] |  |  |  |  |  |  |  |  |  |  |  |  | inactive against the L1210 leukemia | negligible alkylating activity |  | maximum % T/C, L1210 leukemia (L1210 leukemia): 97 % T/C; absorbance at 540 nm (alkylating activity) [1]: 10
10 | Cc1ccc(S(=O)(=O)N(C)NS(=O)(=O)c2ccc(Cl)cc2)cc1 [Compound 3, N'-(p-chlorobenzenesulfonyl)-N-methyl-N-(p-toluenesulfonyl)hydrazine] | 171 | +2.9% | 17.4 ± 1.4 | +3.7% | 10.8 ± 0.6 | +10.0% | 11.2 ± 1.3 | +6.0% |  | 117 | 122 | 189 | active against the L1210 leukemia |  | 135 | response vs control in vivo at 50 mg/kg (L1210 leukemia; L1210, 144 h): 189%; rate of decomposition to a reactive species (in words) [1]: decomposed less rapidly than compound 10
11 | O=S(=O)(NNS(=O)(=O)c1ccccc1)c1ccccc1 [N,N'-bis(benzenesulfonyl )hydrazine, reference compound] |  |  |  |  |  |  |  |  |  |  |  |  | inactive against the L1210 leukemia | negligible alkylating activity |  | maximum % T/C, L1210 leukemia (L1210 leukemia): 101 % T/C; activity against the L1210 leukemia (in words) (L1210 leukemia; listed as N,N'-bis(benzenesulfonyl)hydrazine): inactivity; absorbance at 540 nm (alkylating activity) [1]: 0
